Measurements reported in patent US20220153746A1, “NITROGEN OXIDE-DONATING PDE-5 AND/OR PDE-6 INHIBITOR COMPOUNDS, AND USES THEREOF” (ILDONG PHARMACEUTICAL CO., LTD., priority 2020, published 2022).
Like-named read-outs stand apart in the source and are kept apart here.

Assay: TD Phase (Groups 1 and 3): plasma and ocular tissue concentrations and pharmacokinetics of Compound 18 and its metabolite Compound 4 after once daily ocular instillation of Compound 18 nanosuspension for 7 days
Format: in vivo, New Zealand white rabbits
Settings: for concentration at 2 h / concentration at 4 h / concentration at 8 h / concentration at 0.5 h / concentration at 1 h / Cmax / Tmax / AUC(0-t) / half-life: male, New Zealand white, rabbit; for concentration at 2 h / concentration at 4 h / concentration at 8 h / concentration at 0.5 h / concentration at 1 h: TD Phase; for concentration at 2 h: Group 3, 2 h; for concentration at 4 h: Group 3, 4 h; for concentration at 8 h: Group 3, 8 h; for concentration at 0.5 h: Group 3, 0.5 h; for concentration at 1 h: Group 1, 1 h; for Cmax / Tmax / AUC(0-t) / half-life: topical or ocular; for AUC(0-t): read-out: AUC0-8
Text: This example illustrates the procedures and results for the levels of Compound 18 and its metabolite Compound 4 in plasma and ocular tissues of normotensive rabbits following ocular instillation of Compound 18 once daily for 7 consecutive days.
Twenty five (25) male New Zealand white rabbits were divided into 5 groups of varying amounts of animals per group.
The Test article, Compound 18 was formulated as a 2% nanosuspension in DI water containing 0.2% PS80 (polyoxyethylenesorbitan, monooleate (Tween 80)) and 0.4% HPMC (hydroxypropylmethylcellulose) at pH 6.77. Referred to herein as “Compound 18 nanosuspension.”
The study consisted of three groups (Groups 1-3) of 19 male rabbits (NZW) that underwent once daily morning ocular installation (1 eyedrop) for 7 consecutive days (Day 0-6). Groups 4-5 each consisted of 3 male rabbits (NZW) that were not dosed.
Blood samples (1 mL) were collected from the jugular vein at the intervals set out below for each group. The samples were then inverted several times following collection and held on wet ice until centrifuged. Samples were centrifuged within 60 minutes of collection under refrigeration (set at 5° C. for 10 minutes at 2000 g.
Group 1 (Pilot Study, terminal blood collection): blood was collected from 3 animals at 1 hour post day 7 dose of Compound 18 nanosuspension.
Group 3 (TD Phase, terminal blood collection): blood was collected from 3 animals at 0.5 hour, 3 animals at 2 hours, 3 animals at 4 hours, and 3 animals at 8 hours post day 7 dose of Compound 18 nanosuspension.
(§1) Group 1 (Pilot Study): 3 animals were terminated at 1 hour post Day 7 dose of Compound 18 nanosuspension. Following blood collection and termination, ocular tissues (aqueous humor, vitreous humor, cornea, iris/ciliary body, lens, optic nerve, retina, sclera/choroid, and trabecular meshwork) were collected from each animal and the tissue weights were recorded. Note: sclera and choroid were collected together. Iris and ciliary body were collected together.
as §1, with “3 (TD Phase):” for “1 (Pilot Study):”, “0.5 hour, 3 animals at 2 hours, 3 animals at 4 hours, and 3 animals at 8 hours” for “1 hour”
Plasma and tissue samples from treated animals (Groups 1-3) were analyzed for Compound 18 and its metabolite Compound 4 concentrations by LC-MS/MS.
Pharmacokinetic analysis was conducted using WinNonlin Version 6.2.1 (Pharsight, Mountain View, Calif.), operating as a validated software system. Noncompartmental analysis was conducted using the extravascular administration model for ocular instillation dosing.
The peak plasma and ocular tissue concentration, time to achieve peak plasma and ocular tissue concentration, half-life, and area under the plasma and ocular tissue concentration-time curve (Cmax, Tmax, T1/2, and AUC) were calculated from the TD phase combined with the pilot study mean animal plasma and ocular tissue concentrations for each sampling time/dose group for Compound 18 and its metabolite Compound 4.
BA Assay: Quantitation Range 0.05 to 100 ng/mL for Compound 18, 0.15 to 100 ng/mL for Compound 4.
3. Pipet 50 μL of each type of pre-spiked ocular tissue samples (AH/VH) for QC samples, 50 μL of incurred aqueous humor, and vitreous humor sample (if applicable) into a 96 well plate.
Ocular Tissues Homogenate Preparation: Incurred rabbit ocular tissues were weighed in Genogrinder tubes (plastic tubes with small beads) at the time of removal from the animal and stored frozen (<−70° C.) until analysis. The rabbit incurred ocular tissues were thawed on wet ice. […]

[1] = iris/ciliary body, topical, 2 mg/day, Mean, read-out: Final Compound 18 Iris/Ciliary Body Conc.
[2] = lens homogenate, topical, 2 mg/day, individual animals, homogenate dilution factor 5, read-out: Compound 18 Lens Homogenate Conc.
[3] = lens, topical, 2 mg/day, Mean, read-out: Final Compound 18 Lens Conc.
[4] = lens, topical, 2 mg/day, individual animals, BQL set to 0, read-out: Final Compound 18 Lens Conc.
[5] = optic nerve, other: ocular instillation (eye drop), 0.798 mg/kg/day, Mean, read-out: Final Compound 18 Optic Nerve Conc.
[6] = plasma, other: ocular instillation (eye drop), 0.8 mg/kg/day, Mean, BQL set to 0, read-out: Compound 18 Plasma Conc.
[7] = plasma, other: ocular instillation (eye drop), 0.8 mg/kg/day, individual animals, read-out: Compound 18 Plasma Conc.
[8] = plasma, other: ocular instillation, 0.8 mg/kg/day, Mean, BQL set to 0, read-out: Compound 18 Plasma Conc.
[9] = retina, other: ocular instillation (eye drop), 0.798 mg/kg/day, Mean, read-out: Final Compound 18 Retina Conc.
[10] = sclera/choroid, other: ocular instillation (eye drop), 0.798 mg/kg/day, Mean, read-out: Final Compound 18 Sclera/Choroid Conc.
[11] = 0.8 mg/kg/day, aqueous humor, Day 7, from mean concentrations
[12] = 0.8 mg/kg/day, cornea, Day 7, from mean concentrations
[13] = 0.8 mg/kg/day, iris/ciliary body, Day 7, from mean concentrations
[14] = 0.8 mg/kg/day, lens, Day 7, from mean concentrations
[15] = 0.8 mg/kg/day, optic nerve, Day 7, from mean concentrations
[16] = 0.8 mg/kg/day, plasma, Day 7, from mean concentrations
[17] = 0.8 mg/kg/day, retina, Day 7, from mean concentrations
[18] = 0.8 mg/kg/day, sclera/choroid, Day 7, from mean concentrations
[19] = 0.8 mg/kg/day, trabecular meshwork, Day 7, from mean concentrations
[20] = 0.8 mg/kg/day, vitreous humor, Day 7, from mean concentrations
[21] = trabecular meshwork, other: ocular instillation (eye drop), 0.798 mg/kg/day, Mean, read-out: Final Compound 18 Trabecular Meshwork Conc.
[22] = vitreous humor, other: ocular instillation (eye drop), 0.8 mg/kg/day, Mean, BQL set to 0, read-out: Compound 18 Vitreous Humor Conc.
[23] = vitreous humor, other: ocular instillation (eye drop), 0.8 mg/kg/day, individual animals, read-out: Compound 18 Vitreous Humor Conc.

CCCc1nn(C)c2c(=O)[nH]c(-c3cc(S(=O)(=O)N4CC(CCCO[N+](=O)[O-])C4)ccc3OCC)nc12 [Compound 18, 3-(1-((4-ethoxy-3-(1-methyl-7-oxo-3-propyl-6,7-dihydro-1H-pyrazolo[4,3-d]pyrimidin-5-yl)phenyl)sulfonyl)azetidin-3-yl)propyl nitrate]
concentration at 2 h [1]: 5.56 ng/g | concentration at 4 h [1]: 4.87 ng/g | concentration at 8 h [1]: 0.967 ng/g | concentration at 0.5 h [2]: 1.27 ng/mL | concentration at 4 h [2]: 0.0767 ng/mL | concentration at 8 h (lens, other: ocular instillation (eye drop), 0.798 mg/kg/day, Mean, read-out: Final Compound 18 Lens Conc.): 0 ng/g | concentration at 1 h [3]: 0 ng/g | concentration at 1 h [4]: 0 ng/g | concentration at 0.5 h [3]: 2.12 ng/g | concentration at 2 h [3]: 0 ng/g | concentration at 2 h [4]: 0 ng/g | concentration at 4 h [3]: 0.128 ng/g | concentration at 8 h [4]: 0 ng/g | concentration at 1 h (optic nerve homogenate, other: ocular instillation (eye drop), 0.798 mg/kg/day, individual animals, homogenate dilution factor 20, read-out: Compound 18 Optic Nerve Homogenate Conc.): 11.8 ng/mL | concentration at 1 h [5]: 231 ng/g | concentration at 1 h (optic nerve, other: ocular instillation (eye drop), 0.798 mg/kg/day, individual animals, read-out: Final Compound 18 Optic Nerve Conc.): 236 ng/g | concentration at 0.5 h [5]: 110 ng/g | concentration at 2 h [5]: 378 ng/g | concentration at 4 h [5]: 128 ng/g | concentration at 8 h [5]: 61.6 ng/g | concentration at 2 h [6]: 0.0397 ng/mL | concentration at 2 h [7]: 0.119 ng/mL | concentration at 8 h [6]: 0.0172 ng/mL | concentration at 8 h [7]: 0.0517 ng/mL | concentration at 1 h [8]: 0.0407 ng/mL | concentration at 1 h (plasma, other: ocular instillation, 0.8 mg/kg/day, individual animals, read-out: Compound 18 Plasma Conc.): 0.0641 ng/mL | concentration at 0.5 h [8]: 0.261 ng/mL | concentration at 0.5 h (retina homogenate, other: ocular instillation (eye drop), 0.798 mg/kg/day, individual animals, homogenate dilution factor 20, read-out: Compound 18 Retina Homogenate Conc.): 0.798 ng/mL | concentration at 1 h [9]: 18.1 ng/g | concentration at 0.5 h [9]: 22 ng/g | concentration at 0.5 h (retina, other: ocular instillation (eye drop), 0.798 mg/kg/day, individual animals, BQL set to 0, read-out: Final Compound 18 Retina Conc.): 16 ng/g | concentration at 2 h [9]: 34.8 ng/g | concentration at 4 h [9]: 27.3 ng/g | concentration at 8 h [9]: 7.17 ng/g | concentration at 1 h (sclera/choroid homogenate, other: ocular instillation (eye drop), 0.798 mg/kg/day, individual animals, homogenate dilution factor 8, read-out: Compound 18 Sclera/Choroid Homogenate Conc.): 3.89 ng/mL | concentration at 1 h [10]: 45.3 ng/g | concentration at 1 h (sclera/choroid, other: ocular instillation (eye drop), 0.798 mg/kg/day, individual animals, read-out: Final Compound 18 Sclera/Choroid Conc.): 31.1 ng/g | concentration at 0.5 h [10]: 107 ng/g | concentration at 2 h [10]: 246 ng/g | concentration at 4 h [10]: 241 ng/g | concentration at 8 h [10]: 26.8 ng/g | Cmax [11]: 0.063 ng/mL | Tmax [11]: 1 h | AUC(0-t) [11]: 0.0158 ng·h/mL | Cmax [12]: 181 ng/g | Tmax [12]: 1 h | half-life [12]: 1.33 h | Cmax [13]: 107 ng/g | Tmax [13]: 1 h | half-life [13]: 2.25 h | Cmax [14]: 2.12 ng/g | Tmax [14]: 0.5 h | half-life [14]: 0.865 h | Cmax [15]: 378 ng/g | Tmax [15]: 2 h | half-life [15]: 2.43 h | Cmax [16]: 0.261 ng/mL | Tmax [16]: 0.5 h | AUC(0-t) [16]: 0.255 ng·h/mL | Cmax [17]: 34.8 ng/g | Tmax [17]: 2 h | half-life [17]: 2.54 h | Cmax [18]: 246 ng/g | Tmax [18]: 2 h | half-life [18]: 1.76 h | Cmax [19]: 7.67 ng/g | Tmax [19]: 1 h | half-life [19]: 2.64 h | Cmax [20]: 0.0257 ng/mL | Tmax [20]: 0.5 h | AUC(0-t) [20]: 0.0242 ng·h/mL | Cmax (Cornea, Day 7, Compound 18 0.8 mg/kg ocular instillation once daily, Groups 1 and 3): 181 ng/g | concentration at 1 h [21]: 7.67 ng/g | concentration at 0.5 h [21]: 7.01 ng/g | concentration at 2 h [21]: 11.8 ng/g | concentration at 4 h [21]: 5.52 ng/g | concentration at 8 h (trabecular meshwork, other: ocular instillation, 0.8 mg/kg/day, Mean, read-out: Final Compound 18 Trabecular Meshwork Conc.): 1.93 ng/g | concentration at 0.5 h [22]: 0.0257 ng/mL | concentration at 0.5 h [23]: 0.0771 ng/mL | concentration at 2 h [22]: 0.0228 ng/mL | concentration at 2 h [23]: 0.0683 ng/mL | AUC0-8 (optic nerve, Day 7, from mean concentrations): 1302 ng·h/g | AUC0-8 (retina, Day 7, from mean concentrations): 173 ng·h/g | AUC0-8 (sclera/choroid, Day 7, from mean concentrations): 1234 ng·h/g | AUC0-8 (trabecular meshwork, Day 7, from mean concentrations): 32.4 ng·h/g
